One may read the Kp as tissue or fluid exposure divided by exposure in the circulation. In general, AUC(0-t) refers to exposure summed from dosing to a finite time, without extrapolation to infinity. The Cmax is the peak of the concentration-time curve. As usually defined, the IC50 is the concentration that gives 50% inhibition.

Structures are written as SMILES. Like-named read-outs stand apart in the source and are kept apart here.

This is an account of results in EP4685142A1, “TRIAZINE COMPOUND AND USE THEREOF” (Chengdu Zenitar Biomedical Technology Co., Ltd., priority 2023, dated 2024).

The nature of series [1]: In vivo brain-to-plasma ratio in mice. The following applies: for Brain / Plasma: male mice, oral 10 mg/kg.
Description: Evaluation of in vivo brain-to-plasma ratio of compound
Experimental purpose: to obtain the brain-to-plasma ratio of the compound
Experimental protocol: the brain-to-plasma ratio of the compound was investigated by monitoring the content of the compound in mouse brain and plasma.
Experimental procedure: the compound was weighed, followed by adding a small amount of DMSO and adding a sodium chloride solution for injection, to prepare a 10 mg · mL^-1 compound solution for administration. Male mice were orally administered at 10 mg · kg^-1, and whole plasma and whole brain tissue were sampled at 1 h and 6 h after administration (n=3). […] A centrifuge tube was weighed as M1, the centrifuge tube containing the whole brain tissue was weighed as M2, the centrifuge tube containing water for homogenization was weighed as M3, and the centrifuge tube after the removal of 30 µL homogenate was weighed as M4.
Standard curve range: 10-10,000 ng·mL^-1. Content of drug in brain = measured value × 0.03 × (M3−M1)/[(M2−M1)×(M3−M4)].
The nature of series [2]: In vivo distribution of cerebrospinal fluid and plasma. The following applies: for Cerebrospinal fluid / Plasma: intravenous 5 mg/kg, n=1; for concentration at 0.25 h / concentration at 2 h: male, iv, 5 mg/kg.
Description: Evaluation of in vivo distribution of cerebrospinal fluid and plasma after compound administration
Experimental procedure: the compound was weighed, followed by adding a small amount of DMSO and then adding a sodium chloride solution for injection, to prepare a 5 mg·mL^-1 compound solution for administration. […] Standard curve range: 1-1000 ng·mL^-1.
In series [3] the target is T1, hERG potassium ion channel (Homo sapiens, UniProt Q12809). In words: Inhibition of hERG potassium ion channel (CHO cells stably expressing hERG, Qpatch).
Description: (§1) Inhibition experiment of compounds on hERG potassium ion channel
(§2) Cell culture and treatment: CHO cells stably expressing hERG were cultured in cell culture flasks and incubated in a 5% CO2 incubator at 37°C. When a cell density reached 60%-80%, the cell culture medium was aspirated, washed once with PBS, and then digested with Detachin. After digestion, the grown cells were neutralized in the cell culture medium, and then centrifuged, the supernatant was aspirated, the cell culture medium was added again to resuspend the grown cells, and the cell density was adjusted to 2-5×10^6 cells/mL for later use.
(§3) Compound preparation: the compound stock solution was diluted in 100% DMSO, that is, 10 µL compound stock solution was serially diluted in 20 µL DMSO by 3 folds to obtain six concentrations. Six concentrations of the compound (4 µL for each concentration) were diluted in 396 µL extracellular fluid by 100 folds to obtain six intermediate concentrations. Six intermediate concentrations of the compound (80 µL for each concentration) were diluted in 320 µL extracellular fluid by 5 folds to obtain final concentrations to be tested. […] DMSO in a final test concentration was not more than 0.2%, and DMSO at this concentration had no effect on the hERG potassium channel. The entire dilution process for compound preparation was performed using Bravo instrument.
(§4) Electrophysiological recording process: the processes of single-celled high-impedance sealing and whole-cell mode formation were all automatically completed by Qpatch instrument, under the whole-cell recording mode, the cells were clamped at -80 mV, before 5-second + 40 mV depolarization stimulus, the cells were given 50-millisecond - 50 mV pre-voltage, followed by repolarization to -50 mV for 5 seconds, and then returning to -80 mV. The voltage stimulus was given every 15 seconds, after 2 minutes of recording, extracellular fluid was recorded for 5 min, and then a drug was administrated, started from a lowest test concentration, each test concentration of the compound was given for 2.5 minutes, after all concentrations were given consecutively, a positive control compound Cisapride (3 µM) was given. At least 3 cells were tested for each concentration (n≥3).
(§5) Data processing: data analysis and processing were performed using GraphPad Prism 5.0 and Excel software. IC50 values of the compounds were calculated by fitting with the following equation using GraphPad Prism 5 software: Y = Bottom + (Top−Bottom)/(1+10^(∧)((LogIC50−X)*HillSlope)); [formula] where X is the Log value of the test sample concentration, Y is an inhibition percentage at a corresponding concentration, and Bottom and Top are the minimum and maximum inhibition percentages, respectively.
Series [4] in a line: Pharmacokinetic evaluation in Balb/c mice. The following applies: mouse, in vivo, 5 mg/kg. It is filed as in vivo. The source says: 4. Pharmacokinetic evaluation of compounds in Balb/c mice
Experimental purpose: to understand pharmacokinetic properties of the compounds.
Experimental basis: Technical Guidelines for Nonclinical Pharmacokinetic Studies of Chemical Drugs, 2014.
Experimental protocol: the pharmacokinetic properties of the compounds were investigated via intravenous administration and intragastric administration in Balb/c mice.
The blood drug concentration was quantitatively analyzed by LC-MS/MS, and pharmacokinetic parameters were calculated, such as peak concentration (Cmax), area under the concentration-time curve (AUC(0-t)), half-life (T1/2), clearance (CL), volume of distribution at steady state (Vdss), and bioavailability (F).
The results of pharmacokinetic evaluation are shown in Table 5 below: Table 5 Pharmacokinetic test results of compounds in Balb/c mice

The target in series [5] is T2, NLRP3 inflammasome (Homo sapiens, UniProt Q96P20).
T2 construct: host or cells: THP-1 cells
In words: Inhibitory activity of NLRP3 inflammasome in human monocytes (THP-1 cells, LPS + Nigericin, IL-1β ELISA). It is filed as cell-based. In outline:
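THP-1 cells differentiated overnight with 10 µM PMA at 37°C and 5% CO2, then primed 3 h with 1 µg/mL LPS in Opti-MEM. Compound applied for 40 min, followed by 40 min with 10 µM nigericin. IL-1β in supernatant measured by ELISA.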
In general terms: In an ELISA, binding on a coated surface is turned into a signal by an enzyme label.

For series [6], the target named is T1, hERG potassium ion channel.
Description: as §1, §2, §3, §4, §5
Series [7] concerns LPS-induced mice. The experiment in a line: LPS-induced mouse model, survival. It is filed as in vivo, Balb/c mice. The settings on record: for 72h Survival rate: 25 mg/kg oral, 1 h before 10 mg/kg LPS i.p.; for survival status of mice (mice alive) 12h / survival status of mice (mice alive) 24h / survival status of mice (mice alive) 36h / survival status of mice (mice alive) 48h / survival status of mice (mice alive) 72h: 25 mg/kg.

In series [8] the test system is IL-1β in human PBMC cells. The experiment in a line: Inhibitory activity on IL-1β in human PBMC cells (LPS + Nigericin, ELISA). It is filed as cell-based. The settings on record: human PBMC, LPS 1 µg/mL 3 h, drug 40 min, Nigericin 10 µM 40 min, IL-1β ELISA; read-out: IC50. The procedure:
2. Determination of inhibitory activity of compounds on IL-1β in human PBMC cells
Human peripheral blood mononuclear cells (PBMCs) were taken and cultured overnight in RPMI 1640 culture medium containing 10% FBS and antibiotics before stimulation. On the second day, the culture medium was replaced with a serum-reduced culture medium, the grown cells were stimulated for 3 h with LPS at a working concentration of 1 µg/mL, stimulated for 40 min with a drug, and then stimulated for 40 min with Nigericin at a concentration of 10 µM, the cell supernatant was harvested, and the yield of IL-1β was detected by ELISA.
The experimental results are shown in Table 3: Table 3 Inhibitory effect of compounds on IL-1β in PBMC cells

The mark [9] stands for this setting: PO, Balb/c mice, read-out: AUC(0-t).
Setting [10] is: PO, Balb/c mice, read-out: Cmax.
The mark [11] stands for this setting: PO, Balb/c mice, read-out: T1/2 (converted).

T1 sequence (Q12809 whole entry): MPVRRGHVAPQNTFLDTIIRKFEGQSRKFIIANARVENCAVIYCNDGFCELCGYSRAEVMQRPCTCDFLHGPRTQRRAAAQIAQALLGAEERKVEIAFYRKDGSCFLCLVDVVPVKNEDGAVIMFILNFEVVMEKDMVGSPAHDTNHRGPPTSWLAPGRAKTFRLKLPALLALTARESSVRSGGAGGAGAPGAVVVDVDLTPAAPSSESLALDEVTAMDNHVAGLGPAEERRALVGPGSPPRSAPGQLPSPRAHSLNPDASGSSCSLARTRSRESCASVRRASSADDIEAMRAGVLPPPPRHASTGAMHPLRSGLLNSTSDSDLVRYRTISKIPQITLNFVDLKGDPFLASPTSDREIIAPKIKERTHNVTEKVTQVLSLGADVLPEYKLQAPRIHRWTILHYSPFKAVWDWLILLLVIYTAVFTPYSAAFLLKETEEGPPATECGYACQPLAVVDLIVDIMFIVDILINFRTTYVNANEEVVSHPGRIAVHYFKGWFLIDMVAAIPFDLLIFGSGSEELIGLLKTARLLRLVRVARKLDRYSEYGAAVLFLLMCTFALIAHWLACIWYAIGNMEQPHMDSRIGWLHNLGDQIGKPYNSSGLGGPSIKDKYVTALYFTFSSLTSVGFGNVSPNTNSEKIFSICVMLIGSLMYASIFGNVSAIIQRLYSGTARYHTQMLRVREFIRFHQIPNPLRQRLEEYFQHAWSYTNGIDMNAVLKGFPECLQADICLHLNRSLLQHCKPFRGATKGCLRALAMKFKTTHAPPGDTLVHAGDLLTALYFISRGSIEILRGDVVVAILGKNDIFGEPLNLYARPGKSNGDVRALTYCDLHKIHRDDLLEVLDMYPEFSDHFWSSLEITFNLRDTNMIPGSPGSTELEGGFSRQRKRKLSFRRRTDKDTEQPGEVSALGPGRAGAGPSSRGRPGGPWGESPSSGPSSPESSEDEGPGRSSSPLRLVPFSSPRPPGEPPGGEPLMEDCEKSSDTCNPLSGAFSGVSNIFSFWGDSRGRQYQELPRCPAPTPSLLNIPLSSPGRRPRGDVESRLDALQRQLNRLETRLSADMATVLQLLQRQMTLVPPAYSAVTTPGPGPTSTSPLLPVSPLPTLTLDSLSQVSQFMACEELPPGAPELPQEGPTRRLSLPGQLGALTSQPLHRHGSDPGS
T2 sequence (Q96P20 whole entry): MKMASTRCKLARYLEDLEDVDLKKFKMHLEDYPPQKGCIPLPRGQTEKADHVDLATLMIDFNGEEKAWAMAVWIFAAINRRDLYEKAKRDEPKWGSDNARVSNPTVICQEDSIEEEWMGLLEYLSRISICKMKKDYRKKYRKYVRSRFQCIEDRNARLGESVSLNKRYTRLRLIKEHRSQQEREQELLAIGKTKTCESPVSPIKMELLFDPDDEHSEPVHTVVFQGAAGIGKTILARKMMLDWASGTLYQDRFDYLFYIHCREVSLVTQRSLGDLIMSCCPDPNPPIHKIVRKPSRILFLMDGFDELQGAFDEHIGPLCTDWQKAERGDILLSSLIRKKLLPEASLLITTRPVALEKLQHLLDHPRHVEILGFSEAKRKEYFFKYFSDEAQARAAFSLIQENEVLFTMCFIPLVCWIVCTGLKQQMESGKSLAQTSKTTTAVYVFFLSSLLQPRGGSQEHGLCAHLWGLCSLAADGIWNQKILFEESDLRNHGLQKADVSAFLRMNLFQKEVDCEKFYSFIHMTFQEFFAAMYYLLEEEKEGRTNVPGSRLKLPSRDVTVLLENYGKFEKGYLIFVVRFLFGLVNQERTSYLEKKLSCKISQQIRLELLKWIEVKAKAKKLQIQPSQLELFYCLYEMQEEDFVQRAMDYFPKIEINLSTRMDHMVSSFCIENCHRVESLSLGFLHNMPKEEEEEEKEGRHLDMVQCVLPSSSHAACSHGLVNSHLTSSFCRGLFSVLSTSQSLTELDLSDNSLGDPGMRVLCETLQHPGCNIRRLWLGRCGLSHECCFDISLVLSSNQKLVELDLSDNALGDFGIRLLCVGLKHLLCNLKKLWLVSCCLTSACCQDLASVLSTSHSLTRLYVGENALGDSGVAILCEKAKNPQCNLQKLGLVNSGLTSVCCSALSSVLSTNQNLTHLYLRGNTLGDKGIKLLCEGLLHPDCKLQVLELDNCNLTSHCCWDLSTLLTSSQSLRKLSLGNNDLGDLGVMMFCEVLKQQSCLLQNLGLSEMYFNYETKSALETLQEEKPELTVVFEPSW

With `CCn1c(-c2ccc3sccc3c2O)nnc(N[C@@H]2CCCN(C)C2)c1=O` [Compound 17, (R)-4-ethyl-3-(4-hydroxybenzo[b]thiophen-5-yl)-6-[(1-methylpiperidin-3-yl)amino]-1,2,4-tria zin-5(4H)-ketone], in series [1] (1 h), the Brain was 745 ng/g and the Plasma came out at 5243 ng/mL. Besides, in series [1] (6 h), the Brain is 290 ng/g and the Plasma is given as 1872 ng/mL. Also, in series [1] (mouse, brain, po, 10 mg/kg), the Kp at 1 h turned out to be 0.14 and the Kp at 6 h is 0.16. Further, in series [2] (0.25h), the Cerebrospinal fluid is reported as 47 ng/g and the Plasma turned out to be 713 ng/mL. In series [2] (2h), the Cerebrospinal fluid worked out at 25 ng/g and the Plasma stood at 590 ng/mL. The “20 uM Inhibition ratio” value in series [3] is reported as 22.83%. For the same compound, the AUC(0-t) in series [4] (setting [9]) stood at 17800 ng·h/mL. Further, the Cmax in series [4] (setting [10]) came to 1850 ng/mL. Further, the half-life in series [4] (setting [11]) is 4.2 h. In addition, the IC50 in series [5] was found to be 3.19 nM. The “inhibitory effects on the hERG potassium ion channel (conclusion in words)” value (“inhibitory effects” for short) in series [6] is “Conclusion: compounds 3, 4, 5, 9, 16, 17, 24, 30, 40, 41, 42, 43, 54 and others have weak inhibitory effects on the hERG potassium ion channel, having weaker inhibitory effect than the reference compound Ref-1”.

In series [2] (0.25h), `CCN1C[C@H](F)C[C@@H](Nc2nnc(-c3ccc4sccc4c3O)n(C)c2=O)C1` [Compound 41, 6-(((3R,5R)-1-ethyl-5-fluoropiperidin-3-yl)amino)-3-(4-hydroxybenzo[b]thiophen-5-yl)-4-me thyl-1,2,4-triazin-5(4H)-ketone] yielded a Cerebrospinal fluid of 67 ng/g and a Plasma of 668 ng/mL. Moreover, in series [2] (2h), the Cerebrospinal fluid worked out at 1 ng/g and the Plasma was found to be 38 ng/mL. Besides, the “20 uM Inhibition ratio” value in series [3] came out at 13.31%. For the same compound, in series [7], the “72h Survival rate” value turned out to be 100%. Moreover, in series [7] (First cage (5 mice)), the “survival status of mice (mice alive) 12h” value is listed as 5, the “survival status of mice (mice alive) 24h” value is 5, the “survival status of mice (mice alive) 36h” value was 5 and the “survival status of mice (mice alive) 48h” value amounted to 5. Also, the “survival status of mice (mice alive) 72h” value in series [7] (First cage (5 mice)) was 5. In series [7] (Second cage (5 mice)), the “survival status of mice (mice alive) 12h” value is 5, the “survival status of mice (mice alive) 24h” value was found to be 5, the “survival status of mice (mice alive) 36h” value stood at 5 and the “survival status of mice (mice alive) 48h” value is reported as 5. The “survival status of mice (mice alive) 72h” value in series [7] (Second cage (5 mice)) came to 5. Besides, the IC50 in series [5] came to 2.02 nM. Moreover, the “inhibitory effects” value in series [6] is “Conclusion: compounds 3, 4, 5, 9, 16, 17, 24, 30, 40, 41, 42, 43, 54 and others have weak inhibitory effects on the hERG potassium ion channel, having weaker inhibitory effect than the reference compound Ref-1”.

For the compound `CCN1C[C@H](F)C[C@@H](Nc2nnc(-c3ccc4sccc4c3O)n(CC)c2=O)C1` [Compound 42, 4-ethyl-6-(((3R,5R)-1-ethyl-5-fluoropiperidin-3-yl)amino)-3-(4-hydroxybenzo[b]thiophen-5-y 1)-1,2,4-triazin-5(4H)-ketone], in series [2] (mouse, cerebrospinal fluid), the concentration at 0.25 h was found to be 35 ng/g and the concentration at 2 h was found to be 1 ng/g. In series [2] (mouse, plasma), the concentration at 0.25 h was determined as 965 ng/mL and the concentration at 2 h stood at 46 ng/mL. Also, in series [3], the “20 uM Inhibition ratio” value is 14.98%. In series [4] (male, Balb/c, po), this compound showed an AUC(0-t) of 2500 ng·h/mL, a Cmax of 2700 ng/mL and a half-life of 1.61 h. For the same compound, the IC50 in series [5] (THP-1 cells, PMA, LPS 1 µg/mL 3 h, drug 40 min, Nigericin 10 µM 40 min, IL-1β ELISA, read-out: IC50) turned out to be 4.76 nM. In addition, the “inhibitory effects” value in series [6] (human) was “Conclusion: compounds 3, 4, 5, 9, 16, 17, 24, 30, 40, 41, 42, 43, 54 and others have weak inhibitory effects on the hERG potassium ion channel, having weaker inhibitory effect than the reference compound Ref-1”.

With `CCn1c(-c2ccc3sccc3c2O)nnc(N[C@@H]2C[C@@H](F)CN(C)C2)c1=O` [Compound 43, 4-ethyl-6-(((3R,5R)-5-fluoro-1-methylpiperidin-3-yl)amino)-3-(4-hydroxybenzo[b]thiophen-5-yl)-1,2,4-triazin-5(4H)-ketone], the Cerebrospinal fluid in series [2] (0.25h) turned out to be 151 ng/g; in series [2] (2h) it was 40 ng/g. Further, the figures for the Plasma in series [2] (0.25h) and in series [2] (2h) were 6797 ng/mL and 1911 ng/mL, respectively. Moreover, in series [2] (mouse, in vivo), the “distribution concentrations in cerebrospinal fluid / brain penetration potential (conclusion in words)” value was “Conclusion: some compounds of the present invention have good brain penetration potential, and particularly, compounds 40, 43 and others have high distribution concentrations in cerebrospinal fluid”. For the same compound, the “20 uM Inhibition ratio” value in series [3] was determined as 14.23%. For the same compound, the AUC(0-t) in series [4] (setting [9]) was 15700 ng·h/mL. For the same compound, in series [4] (setting [10]), the Cmax was found to be 5070 ng/mL. Moreover, the half-life in series [4] (setting [11]) was 2.25 h. Also, in series [5], the IC50 stood at 5.66 nM. The “inhibitory effects” value in series [6] was “Conclusion: compounds 3, 4, 5, 9, 16, 17, 24, 30, 40, 41, 42, 43, 54 and others have weak inhibitory effects on the hERG potassium ion channel, having weaker inhibitory effect than the reference compound Ref-1”.

On to `CC(C)(O)c1coc(S(=O)(=O)NC(=O)Nc2c3c(cc4c2CCC4)CCC3)c1` [MCC950, reference compound], for which, in series [8], the IC50 is 7.81 nM. The “72h Survival rate” value in series [7] was found to be 60%. For the same compound, in series [7] (First cage (5 mice)), the “survival status of mice (mice alive) 12h” value is recorded as 5, the “survival status of mice (mice alive) 24h” value came to 5, the “survival status of mice (mice alive) 36h” value stood at 4 and the “survival status of mice (mice alive) 48h” value was 4. For the same compound, in series [7] (First cage (5 mice)), the “survival status of mice (mice alive) 72h” value was 4. Besides, in series [7] (Second cage (5 mice)), the “survival status of mice (mice alive) 12h” value amounted to 5, the “survival status of mice (mice alive) 24h” value came to 4, the “survival status of mice (mice alive) 36h” value is reported as 4 and the “survival status of mice (mice alive) 48h” value came out at 2. Besides, the “survival status of mice (mice alive) 72h” value in series [7] (Second cage (5 mice)) turned out to be 2.
